Source: ChEMBL document CHEMBL1141687, “Design, syntheses, and structure-activity relationships of novel NPY Y5 receptor antagonists: 2-{3-Oxospiro[isobenzofuran-1(3H),4'-piperidin]-1'-yl}benzimidazole derivatives” (Bioorg Med Chem Lett, 2008)
Active and inactive are the calls of the source. The calls are words filed in the database; no cut-off is given here.

Tests used:
[1] = target: T1, Neuropeptide Y receptor type 5 (Homo sapiens, UniProt Q15761); assay: Binding affinity to human NPY Y5 receptor transfected in mouse LMtk cells; assay type: cell-based
T1 sequence (Q15761 whole entry): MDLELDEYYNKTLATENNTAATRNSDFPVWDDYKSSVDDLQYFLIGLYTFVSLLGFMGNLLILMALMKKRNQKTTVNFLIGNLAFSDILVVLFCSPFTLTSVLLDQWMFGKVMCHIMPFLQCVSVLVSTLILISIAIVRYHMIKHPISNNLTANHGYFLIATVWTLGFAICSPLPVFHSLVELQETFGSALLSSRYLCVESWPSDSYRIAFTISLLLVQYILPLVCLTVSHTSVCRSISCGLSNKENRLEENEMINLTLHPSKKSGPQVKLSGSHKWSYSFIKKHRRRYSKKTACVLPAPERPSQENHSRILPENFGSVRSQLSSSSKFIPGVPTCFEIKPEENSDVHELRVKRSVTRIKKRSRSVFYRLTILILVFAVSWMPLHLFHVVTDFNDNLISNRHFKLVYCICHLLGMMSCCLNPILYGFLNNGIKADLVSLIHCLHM

[2] = target: T2, Neuropeptide Y receptor type 1 (Homo sapiens, UniProt P25929); assay: Binding affinity to NPY Y1 receptor
T2 sequence (P25929 whole entry): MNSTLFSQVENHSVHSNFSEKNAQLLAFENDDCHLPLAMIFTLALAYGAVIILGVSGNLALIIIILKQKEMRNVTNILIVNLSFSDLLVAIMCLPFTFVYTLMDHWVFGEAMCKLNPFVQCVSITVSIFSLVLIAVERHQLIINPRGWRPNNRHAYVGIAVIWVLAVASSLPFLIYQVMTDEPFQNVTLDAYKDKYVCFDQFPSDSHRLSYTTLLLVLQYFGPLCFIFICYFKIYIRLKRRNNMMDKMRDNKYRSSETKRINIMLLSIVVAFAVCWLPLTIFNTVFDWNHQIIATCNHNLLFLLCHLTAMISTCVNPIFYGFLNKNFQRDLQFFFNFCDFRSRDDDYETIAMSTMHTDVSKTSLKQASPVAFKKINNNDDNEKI

[3] = target: T3, Neuropeptide Y receptor type 2 (Homo sapiens, UniProt P49146); assay: Binding affinity to NPY Y2 receptor
T3 sequence (P49146 whole entry): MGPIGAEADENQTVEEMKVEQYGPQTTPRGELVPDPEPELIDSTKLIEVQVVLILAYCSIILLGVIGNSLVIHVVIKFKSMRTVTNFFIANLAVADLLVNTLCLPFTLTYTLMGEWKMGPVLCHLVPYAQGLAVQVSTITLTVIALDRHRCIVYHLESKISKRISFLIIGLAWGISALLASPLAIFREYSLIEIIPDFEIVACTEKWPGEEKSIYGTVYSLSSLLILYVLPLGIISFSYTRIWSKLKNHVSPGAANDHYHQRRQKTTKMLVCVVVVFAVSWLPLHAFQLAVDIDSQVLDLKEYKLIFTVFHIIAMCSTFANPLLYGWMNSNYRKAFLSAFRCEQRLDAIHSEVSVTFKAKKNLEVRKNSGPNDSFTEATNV

[4] = target: Neuropeptide Y receptor type 4 (Homo sapiens, UniProt P50391); assay: Binding affinity to NPY Y4 receptor
Sequence of Neuropeptide Y receptor type 4 (P50391 whole entry): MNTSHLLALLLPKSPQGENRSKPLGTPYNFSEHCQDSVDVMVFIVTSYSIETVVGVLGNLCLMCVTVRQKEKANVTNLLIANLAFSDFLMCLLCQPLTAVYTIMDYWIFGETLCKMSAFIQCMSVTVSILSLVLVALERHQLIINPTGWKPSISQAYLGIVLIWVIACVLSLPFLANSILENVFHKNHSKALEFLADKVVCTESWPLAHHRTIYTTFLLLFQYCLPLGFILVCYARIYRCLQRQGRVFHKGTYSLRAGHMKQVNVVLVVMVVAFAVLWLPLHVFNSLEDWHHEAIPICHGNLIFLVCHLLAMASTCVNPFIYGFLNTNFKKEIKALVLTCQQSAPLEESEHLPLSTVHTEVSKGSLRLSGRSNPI

[5] = target: T1, Neuropeptide Y receptor type 5; assay: Antagonist activity at human NPY Y5 receptor transfected in mouse LMtk cells assessed as inhibition of neuropeptide Y-induced increase in […] Ca2+ level; assay type: functional, cell-based
Rattus norvegicus [6] = assay: Plasma concentration in rat at 10 mg/kg, po after 2 hrs; assay type: ADME, organism-based; parameters: dose 10 mg/kg, route oral
Rattus norvegicus [7] = assay: Plasma concentration in rat at 10 mg/kg, po after 4 hrs; assay type: ADME, organism-based; parameters: dose 10 mg/kg, route oral
in vivo = conditions: rat, brain and plasma, po, 10 mg/kg
Description: Ratio of drug level in brain to plasma in rat at 10 mg/kg, po after 2 hrs

Rattus norvegicus [8] = assay: Suppression of intracerebroventricular injected D-trp34NPY-induced food intake in SD rat at 10 mg/kg, po administered 2 hrs prior to ICV injection measured after 2 hrs of D-trp34NPY challenge; assay type: functional, organism-based; parameters: dose 10 mg/kg

Structure (SMILES)	IC50 [1] [µM]	other results
O=C1OC2(CCN(c3nc4ccccc4s3)CC2)c2ccccc21	> 10	
O=C1OC2(CCN(c3nc4c(-c5ccccc5)cccc4[nH]3)CC2)c2ccccc21	0.017	
O=C1OC2(CCN(c3nc4cc(-c5ccccc5)ccc4[nH]3)CC2)c2ccccc21	0.0024	IC50 [2]: > 10 µM; IC50 [3]: > 10 µM; IC50 [4]: > 10 µM; IC50 [5]: 0.0018 µM; Concentration (Rattus norvegicus [6]): 1.8 µM; plasma concentration (Rattus norvegicus [7]): 1.3 µM; Kp at 2 h (in vivo): 0.35
O=C1OC2(CCN(c3nc4cc(Cl)ccc4[nH]3)CC2)c2ccccc21	0.0066	IC50 [2]: > 10 µM; IC50 [3]: > 10 µM; IC50 [4]: > 10 µM; IC50 [5]: 0.0012 µM; Concentration (Rattus norvegicus [6]): 27.8 µM; plasma concentration (Rattus norvegicus [7]): 25.6 µM
COc1cccc2[nH]c(N3CCC4(CC3)OC(=O)c3ccccc34)nc12	0.25	
O=C1OC2(CCN(c3nc4cc(Cl)c(F)cc4[nH]3)CC2)c2ccccc21	0.0067	
O=C1OC2(CCN(c3nc4cc(Cl)c(Cl)cc4[nH]3)CC2)c2ccccc21	0.0016	IC50 [2]: > 10 µM; IC50 [3]: > 10 µM; IC50 [4]: > 10 µM; IC50 [5]: 0.0014 µM; Concentration (Rattus norvegicus [6]): 2.9 µM; plasma concentration (Rattus norvegicus [7]): 4.6 µM
O=C1OC2(CCN(c3nc4c(F)cccc4[nH]3)CC2)c2ccccc21	0.5	
O=C1OC2(CCN(c3nc4cc(C(F)(F)F)ccc4[nH]3)CC2)c2ccccc21	0.0035	IC50 [2]: > 10 µM; IC50 [3]: > 10 µM; IC50 [4]: > 10 µM; IC50 [5]: 0.0064 µM; Concentration (Rattus norvegicus [6]): 15.3 µM; plasma concentration (Rattus norvegicus [7]): 17.5 µM; Activity (Rattus norvegicus [8]): Active; Kp at 2 h (in vivo): 0.31
Cc1cc2nc(N3CCC4(CC3)OC(=O)c3ccccc34)[nH]c2cc1C	0.0092	
O=C1OC2(CCN(c3nc4cccc(Cl)c4[nH]3)CC2)c2ccccc21	0.051	
O=C1OC2(CCN(Cc3nc4ccccc4[nH]3)CC2)c2ccccc21	4.9	
O=C1OC2(CCN(c3nc4cc(Cl)cc(Cl)c4[nH]3)CC2)c2ccccc21	0.0057	
O=C1OC2(CCN(c3nc4cc5c(cc4[nH]3)OC(F)(F)O5)CC2)c2ccccc21	0.0022	
O=C1OC2(CCN(c3nc4cc5c(cc4[nH]3)OCO5)CC2)c2ccccc21	0.0093	
O=C1OC2(CCN(c3nc4cccnc4[nH]3)CC2)c2ccccc21	1.6	
O=C1OC2(CCN(c3nc4cc(F)c(F)cc4[nH]3)CC2)c2ccccc21	0.0048	
CS(=O)(=O)N1CC2(CCN(c3nc4ccccc4[nH]3)CC2)c2ccccc21	> 1	
O=C1OC2(CCN(c3nc4cccc(C(F)(F)F)c4[nH]3)CC2)c2ccccc21	0.083	
O=C1O[C@]2(CC[C@H](c3nc4ncccc4[nH]3)CC2)c2ccccc21	0.091	
O=C1O[C@]2(CC[C@@H](c3nc4cccnc4[nH]3)CC2)c2ccccc21	1.4	
N#Cc1ccc2[nH]c(N3CCC4(CC3)OC(=O)c3ccccc34)nc2c1	0.019	
CS(=O)(=O)c1ccc2[nH]c(N3CCC4(CC3)OC(=O)c3ccccc34)nc2c1	0.085	

The next lines start with results.

IC50 [1] [µM]	Structure (SMILES)	other results
0.056	CS(=O)(=O)Nc1ccc2nc(N3CCC4(CC3)OC(=O)c3ccccc34)[nH]c2c1	
0.074	Cc1cccc2[nH]c(N3CCC4(CC3)OC(=O)c3ccccc34)nc12	
0.02	CNC(=O)c1ccc2nc(N3CCC4(CC3)OC(=O)c3ccccc34)[nH]c2c1	
0.01	O=C1OC2(CCN(c3nc4ccc([N+](=O)[O-])cc4[nH]3)CC2)c2ccccc21	
0.01	O=C1OC2(CCN(c3nc4ccc(Br)cc4[nH]3)CC2)c2ccccc21	
0.037	COc1ccc2[nH]c(N3CCC4(CC3)OC(=O)c3ccccc34)nc2c1	
0.13	CC(=O)Nc1ccc2nc(N3CCC4(CC3)OC(=O)c3ccccc34)[nH]c2c1	
0.14	O=C1OC2(CCN(c3nc4ccccc4[nH]3)CC2)c2ccccc21	
0.058	CN(C)C(=O)c1ccc2nc(N3CCC4(CC3)OC(=O)c3ccccc34)[nH]c2c1	
0.002	CCOC(=O)c1ccc2nc(N3CCC4(CC3)OC(=O)c3ccccc34)[nH]c2c1	
0.036	Cc1ccc2[nH]c(N3CCC4(CC3)OC(=O)c3ccccc34)nc2c1	
0.0018	CC(C)Cc1ccc2nc(N3CCC4(CC3)OC(=O)c3ccccc34)[nH]c2c1	
> 1	O=C(O)c1ccc2[nH]c(N3CCC4(CC3)OC(=O)c3ccccc34)nc2c1	
0.028	O=C1OC2(CCN(c3nc4cc(F)ccc4[nH]3)CC2)c2ccccc21	
0.11	NC(=O)c1ccc2nc(N3CCC4(CC3)OC(=O)c3ccccc34)[nH]c2c1	
0.0027	COC(=O)c1ccc2[nH]c(N3CCC4(CC3)OC(=O)c3ccccc34)nc2c1	IC50 [2]: > 10 µM; IC50 [3]: > 10 µM; IC50 [4]: > 10 µM; IC50 [5]: 0.0015 µM; Concentration (Rattus norvegicus [6]): 3.2 µM; plasma concentration (Rattus norvegicus [7]): 0.1 µM; Kp at 2 h (in vivo): 0.08
